Measurements published in ChEMBL document CHEMBL3390847, “Boronic acids in medicinal chemistry: anticancer, antibacterial and antiviral applications” (Medchemcomm, 2010).
≈ marks a conversion by molar mass, not a printed value.

How the values were obtained:
[1] = Inhibition of beta-lactamase SHV-1 D104K/G238S mutant (unknown origin) expressed in Escherichia coli DH10B using nitrocefin as substrate
[2] = Inhibition of beta-lactamase SHV-1 (unknown origin) expressed in Escherichia coli DH10B using nitrocefin as substrate
[3] = target: T1, Epidermal growth factor receptor (Homo sapiens, UniProt P00533); test: Inhibition of EGFR kinase (unknown origin) using poly(Glu:Tyr) as substrate at 1 uM
T1 sequence (P00533 whole entry): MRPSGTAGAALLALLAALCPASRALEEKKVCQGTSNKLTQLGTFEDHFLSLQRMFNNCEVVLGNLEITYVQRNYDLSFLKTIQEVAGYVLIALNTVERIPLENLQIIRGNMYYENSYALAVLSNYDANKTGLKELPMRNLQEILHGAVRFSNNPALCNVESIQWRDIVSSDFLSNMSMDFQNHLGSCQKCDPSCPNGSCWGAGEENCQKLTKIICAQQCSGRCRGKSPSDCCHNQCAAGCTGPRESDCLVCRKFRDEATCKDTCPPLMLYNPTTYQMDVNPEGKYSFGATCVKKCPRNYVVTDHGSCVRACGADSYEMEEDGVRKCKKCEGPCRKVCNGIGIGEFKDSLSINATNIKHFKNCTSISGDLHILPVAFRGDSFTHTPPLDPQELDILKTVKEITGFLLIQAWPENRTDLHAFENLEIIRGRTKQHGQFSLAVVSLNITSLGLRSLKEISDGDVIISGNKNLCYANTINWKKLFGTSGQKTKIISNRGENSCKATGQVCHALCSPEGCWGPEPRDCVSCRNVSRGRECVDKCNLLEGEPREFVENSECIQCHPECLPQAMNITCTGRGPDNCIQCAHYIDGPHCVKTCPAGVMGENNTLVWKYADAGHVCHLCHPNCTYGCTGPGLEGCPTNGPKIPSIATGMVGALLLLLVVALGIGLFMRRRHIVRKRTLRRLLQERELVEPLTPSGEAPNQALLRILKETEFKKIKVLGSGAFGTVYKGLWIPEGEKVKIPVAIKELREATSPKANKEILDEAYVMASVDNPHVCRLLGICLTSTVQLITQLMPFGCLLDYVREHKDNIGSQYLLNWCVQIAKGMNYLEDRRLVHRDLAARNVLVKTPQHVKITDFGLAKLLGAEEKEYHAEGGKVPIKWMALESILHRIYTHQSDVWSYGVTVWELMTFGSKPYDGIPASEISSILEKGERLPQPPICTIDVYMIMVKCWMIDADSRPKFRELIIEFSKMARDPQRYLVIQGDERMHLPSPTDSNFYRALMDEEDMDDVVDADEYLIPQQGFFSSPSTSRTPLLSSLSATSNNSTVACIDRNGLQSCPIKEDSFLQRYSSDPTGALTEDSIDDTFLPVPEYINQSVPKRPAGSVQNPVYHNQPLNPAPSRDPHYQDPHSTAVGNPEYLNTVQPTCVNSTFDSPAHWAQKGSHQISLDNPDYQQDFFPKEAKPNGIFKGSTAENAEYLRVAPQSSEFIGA

A-431 = test: Cytotoxicity against human A431 cells; type: functional
[4] = target: T1, Epidermal growth factor receptor; test: Inhibition of EGFR kinase (unknown origin) using poly(Glu:Tyr) as substrate
Staphylococcus aureus = test: Antimicrobial activity against Staphylococcus aureus […] after 18 hrs by broth macrodilution assay; type: functional
[5] = tested on: Staphylococcus epidermidis; test: Antimicrobial activity against Staphylococcus epidermidis ATCC 12228 after 18 hrs by broth macrodilution assay; type: functional; conditions: ATCC 12228, 18 h
[6] = Inhibition of tubulin polymerization in rat A10 cells assessed as microtubule loss; type: cell-based
MCF7 = test: Cytotoxicity against human MCF7 cells; type: functional, cell-based
Tubulin [7] = test: Inhibition of tubulin polymerization (unknown origin); type: protein-complex assay, Homo sapiens
[8] = Cytotoxicity against human 1-87 cells; type: functional, cell-based
Tubulin [9] = test: Inhibition of tubulin polymerization (unknown origin) after 30 mins; type: protein-complex assay, Homo sapiens
B16 = test: Cytotoxicity against mouse B16 cells; type: functional, cell-based
[10] = Inhibition of AmpC beta-lactamase N289A mutant (unknown origin)
[11] = Inhibition of TEM-1 (unknown origin)
[12] = Inhibition of TEM-30 (unknown origin)
[13] = target: T2, Proteasome subunit beta type-7 (Homo sapiens, UniProt Q99436); test: Inhibition of trypsin-like activity of proteasome beta7 subunit (unknown origin)
T2 sequence (Q99436 whole entry): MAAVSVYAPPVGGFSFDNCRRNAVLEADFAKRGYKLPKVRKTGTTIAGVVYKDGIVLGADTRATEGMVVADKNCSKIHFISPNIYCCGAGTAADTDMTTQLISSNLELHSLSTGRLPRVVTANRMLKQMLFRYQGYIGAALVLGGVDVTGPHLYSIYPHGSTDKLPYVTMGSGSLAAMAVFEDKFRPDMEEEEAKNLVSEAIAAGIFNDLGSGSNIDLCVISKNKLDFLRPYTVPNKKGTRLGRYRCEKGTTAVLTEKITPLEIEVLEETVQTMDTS

[14] = Inhibition of post-glutamyl peptide hydrolysis proteasome subunit (unknown origin); parameters: species or system Homo sapiens
[15] = target: T3, Proteasome Macropain subunit MB1 (Homo sapiens, UniProt P28074); test: Inhibition of chymotrypsin-like activity of proteasome beta5 subunit (unknown origin)
T3 sequence (P28074 whole entry): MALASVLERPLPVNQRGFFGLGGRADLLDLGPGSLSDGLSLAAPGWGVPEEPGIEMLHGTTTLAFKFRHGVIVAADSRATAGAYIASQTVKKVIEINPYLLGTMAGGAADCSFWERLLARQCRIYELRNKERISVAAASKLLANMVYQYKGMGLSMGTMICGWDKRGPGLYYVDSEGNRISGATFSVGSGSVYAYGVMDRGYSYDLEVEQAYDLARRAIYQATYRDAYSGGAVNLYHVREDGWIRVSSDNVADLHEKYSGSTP

Moraxella catarrhalis = test: Antimicrobial activity against Moraxella catarrhalis after 18 hrs by broth macrodilution assay; type: functional
[16] = Inhibition of beta-lactamase SHV2 D104K mutant (unknown origin) expressed in Escherichia coli DH10B using nitrocefin as substrate
[17] = Inhibition of beta-lactamase SHV2 G238S mutant (unknown origin) expressed in Escherichia coli DH10B using nitrocefin as substrate
[18] = Inhibition of AmpC beta-lactamase (unknown origin)
Bacillus anthracis = test: Antimicrobial activity against Bacillus anthracis; type: functional
Bacillus subtilis = test: Antimicrobial activity against Bacillus subtilis ATCC 23857 after 18 hrs by broth macrodilution assay; type: functional; conditions: ATCC 23857, 18 h

Work on CC(=O)NCB(O)O [ACETAMIDOMETHYLBORONIC ACID] yielded a Ki [1] of 1100 nM and a Ki [2] of 8900 nM.
With OB(O)/C=C/COc1ccc2ncnc(Nc3cccc(Cl)c3)c2c1 the inhibition [3] was 63%, the GI50 (A-431) was 680 nM and the IC50 [4] was 270 nM.
Work on Cc1ccc2cccc(OB(c3ccc(Cl)cc3)c3ccc(Cl)cc3)c2n1 yielded an MIC (Staphylococcus aureus) of 16 µg/mL (≈ 40.8 µM) and an MIC [5] of 8 µg/mL (≈ 20.4 µM).
With COc1cc(/C=C/C(=O)c2cc(OC)c(OC)c(OC)c2)ccc1O the EC50 [6] was 980 nM, the IC50 (MCF7) was 110 nM and the IC50 (Tubulin [7]) was 2600 nM.
For COc1cc(/C=C\c2ccc(OC)c(B(O)O)c2)cc(OC)c1, the IC50 [8] was 28 nM, the IC50 (Tubulin [9]) was 21000 nM and the IC50 (B16) was 19 nM.
Compound O=C(O)/C=C/c1cccc([C@H](NC(=O)Cc2cccs2)B(O)O)c1 has a Ki [10] of 2.8 nM, a Ki [11] of 106 nM and a Ki [12] of 3800 nM.
In the case of OB(O)c1ccc(COc2ccc3ncnc(Nc4cccc(Cl)c4)c3c2)cc1, the inhibition [3] is reported as 55%, the GI50 (A-431) is reported as 1820 nM and the IC50 [4] is reported as 850 nM.
In the case of COc1cc(/C=C\c2ccc(B(O)O)cc2)cc(OC)c1OC, the IC50 [8] is reported as 3200 nM, the IC50 (Tubulin [9]) is reported as over 100000 nM and the IC50 (B16) is reported as 2600 nM.
Work on CC(C)C[C@H](NC(=O)[C@H](Cc1ccccc1)NC(=O)[C@H](Cc1ccccc1)NC(=O)c1cnccn1)B(O)O yielded an IC50 [13] of over 20 nM, an IC50 [14] of 10.9 nM and an IC50 [15] of 0.55 nM.
Compound C=CB(Oc1cccc2cccnc12)c1ccccc1 has an MIC (Moraxella catarrhalis) of 2 µg/mL (≈ 7.72 µM), an MIC (Staphylococcus aureus) of 2 µg/mL (≈ 7.72 µM) and an MIC [5] of 1 µg/mL (≈ 3.86 µM).
Work on COc1ccc(/C=C/c2cc(OC)c(OC)c(OC)c2)cc1B(O)O yielded an EC50 [6] of over 15000 nM, an IC50 (MCF7) of 470 nM and an IC50 (Tubulin [7]) of 7800 nM.
Compound CO/N=C(/C(=O)NCB(O)O)c1csc(N)n1 has a Ki [16] of 700 nM and a Ki [17] of 6800 nM.
In the case of O=C(Cc1cccs1)N[C@H](B(O)O)c1ccccc1, the Ki [18] is reported as 35 nM.
For CC(C)C[C@H](NC(=O)[C@H](Cc1ccccc1)NC(=O)[C@H](Cc1ccc2ccccc2c1)NC(=O)c1cnccn1)B1O[C@@H]2[C@H]3CC[C@H](C3(C)C)[C@]2(C)O1, the IC50 [13] was over 20 nM, the IC50 [14] was over 20 nM and the IC50 [15] was 0.22 nM.
CC[C@H]1OC(=O)[C@H](C)[C@@H](O[C@H]2C[C@@](C)(OC)[C@@H](O)[C@H](C)O2)[C@H](C)[C@@H](O[C@@H]2O[C@H](C)C[C@H](N(C)C)[C@H]2O)[C@](C)(O)C[C@@H](C)C(=O)[C@H](C)[C@@H](O)[C@]1(C)O [ERYTHROMYCIN] showed an MIC90 (Bacillus anthracis) of 1.5 µg/mL (≈ 2.04 µM).
Work on Clc1cccc(B(Oc2cccc3cccnc23)c2cccc(Cl)c2)c1 yielded an MIC (Moraxella catarrhalis) of 2 µg/mL (≈ 5.29 µM), an MIC (Staphylococcus aureus) of 1 µg/mL (≈ 2.65 µM) and an MIC [5] of 2 µg/mL (≈ 5.29 µM). It also gave an MIC (Bacillus subtilis) of 2 µg/mL (≈ 5.29 µM).
In the case of CC(C)C[C@H](NC(=O)[C@H](Cc1ccccc1)NC(=O)[C@H](Cc1ccc2ccccc2c1)NC(=O)c1cnccn1)B(O)O, the IC50 [13] is reported as over 20 nM, the IC50 [14] is reported as 4.43 nM and the IC50 [15] is reported as 0.42 nM.
COc1cc(C(=O)/C=C/c2cc(OC)c(OC)c(OC)c2)ccc1B(O)O gave an EC50 [6] of over 15000 nM, an IC50 (MCF7) of over 2500 nM and an IC50 (Tubulin [7]) of over 40000 nM.
With COc1cc(/C=C/C(=O)c2cc(OC)c(OC)c(OC)c2)ccc1B(O)O the EC50 [6] was 16500 nM, the IC50 (MCF7) was 900 nM and the IC50 (Tubulin [7]) was 31000 nM.
Work on O=C(Cc1cccs1)N[C@H](B(O)O)c1cccc(C(=O)O)c1 yielded a Ki [10] of 17 nM, a Ki [18] of 1 nM and a Ki [11] of 64 nM. For the same compound, the Ki [12] was 7800 nM.
Work on COc1ccc(/C=C\c2cc(OC)c(OC)c(OC)c2)cc1C(=O)O yielded an IC50 [8] of 110000 nM, an IC50 (Tubulin [9]) of over 100000 nM and an IC50 (B16) of 160000 nM.
